Reference: publication PMC5863496, “Mesobuthus Venom-Derived Antimicrobial Peptides Possess Intrinsic Multifunctionality and Differential Potential as Drugs” (Frontiers in Microbiology, 2018)
Ends that are not written are not given here.

Columns and labels:
Assay in all cases: Inhibition-zone assay (CL)
Type in all cases: cell-based
[1] = system: Escherichia coli ATCC 25922; details: EC ATCC 25922, N.A. = no activity at 0.8 nmol peptide each well
Experimental: (§1) The antimicrobial activity of seven peptides, including MeuFSPL-1, MeuFSPL-2, Marmelittin, Melittin, Meucin-22, Marcin-22, and MeuTXKβ1, was evaluated by the inhibition-zone assay previously described in our studies (Hultmark, [1998]; Zhu et al., [2012a]; Zhu and Gao, [2014]). Temperatures used were 30 or 37°C for bacteria or 28°C for fungi. Media used were Luria-Bertani (LB) Broth (10 g tryptone, 5 g yeast extract, and 5 g NaCl in 1 l of water) or Nutrient Broth (10 g peptone, 5 g beef extract powder, and 5 g NaCl in 1 l of water) or GYM(Isp2) (4 g yeast extract, 10 g malt extract, 4 g glucose, 2 g CaCO3 in 1 l of water) for bacteria or Potato Dextrose Broth (200 g patato and 20 g glucose in 1 l of water) for fungi. To make plates, 10 μl of microbial culture (~2 × 10^6 bacterial cells or fungal spores/ml) were mixed in 6 ml of medium containing 0.8% agar and poured into Peri dishes of 9.0 cm diameter. Wells with a diameter of 2 mm were punched into the medium, filled with 2 μl of sample each well. In this assay, three different doses of peptides were applied to three independent wells in one standard bacterial plate. After incubation overnight, inhibition zones were measured and used to calculate lethal concentrations (CL), a concentration just sufficient to inhibit bacterial growth (Hultmark, [1998]; Gao et al., [2009]). CL values are calculated from a plot of d^2 against log n, where d is the diameter (in cm) and n is the amount of sample applied in the well (in nmol). The plot is linear and thus CL can be calculated from the slope (k) and the intercept (m) of this plot. The formula used here is CL = 2.93/ak10^m/k, where “a” is the thickness of the bacterial plate and “CL” is in μM.

[2] = system: methicillin-resistant Staphylococcus aureus P1374; details: MRSA P1374, N.A. = no activity at 0.8 nmol peptide each well
Experimental: as §1

[3] = system: Bacillus subtilis CGMCC 1.2428; details: BS CGMCC 1.2428, N.A. = no activity at 0.8 nmol peptide each well
Experimental: as §1

[4] = system: Staphylococcus aureus J700; details: SA J700, N.A. = no activity at 0.8 nmol peptide each well
Experimental: as §1

[5] = system: Streptococcus sanguinis ATCC 1.2497; details: SSAN ATCC 1.2497, N.A. = no activity at 0.8 nmol peptide each well
Experimental: as §1

[6] = system: Staphylococcus warneri ATCC 1.2824; details: SW ATCC 1.2824, N.A. = no activity at 0.8 nmol peptide each well
Experimental: as §1

[7] = system: Escherichia coli CIP. J14b; details: EC CIP. J14b, N.A. = no activity at 0.8 nmol peptide each well
Experimental: as §1

[8] = system: penicillin-resistant Staphylococcus epidermidis P1389; details: PRSE P1389, N.A. = no activity at 0.8 nmol peptide each well
Experimental: as §1

Escherichia coli D. G2b = details: EC D. G2b, N.A. = no activity at 0.8 nmol peptide each well
Experimental: as §1

[9] = system: Staphylococcus aureus J685; details: SA J685, N.A. = no activity at 0.8 nmol peptide each well
Experimental: as §1

[10] = system: penicillin-resistant Staphylococcus aureus P1383; details: PRSA P1383; inhibition-zone assay; N.A. = no activity at 0.8 nmol peptide each well
Experimental: as §1

[11] = system: Escherichia coli Am. J16c; details: EC Am. J16c, N.A. = no activity at 0.8 nmol peptide each well
Experimental: as §1

[12] = system: Micrococcus luteus CGMCC 1.0290; details: ML CGMCC 1.0290, N.A. = no activity at 0.8 nmol peptide each well
Experimental: as §1

[13] = system: Stenotrophomonas maltophilia CGMCC 1.1788; details: SMAL CGMCC 1.1788, N.A. = no activity at 0.8 nmol peptide each well
Experimental: as §1

[14] = system: Streptococcus mutans ATCC 1.2499; details: SM ATCC 1.2499, N.A. = no activity at 0.8 nmol peptide each well
Experimental: as §1

[15] = system: methicillin-sensitive Staphylococcus aureus CGMCC 1.89; details: MSSA CGMCC 1.89, N.A. = no activity at 0.8 nmol peptide each well
Experimental: as §1

[16] = system: Escherichia coli Am. J23a; details: EC Am. J23a, N.A. = no activity at 0.8 nmol peptide each well
Experimental: as §1

[17] = system: methicillin-resistant Staphylococcus aureus P1386; details: MRSA P1386, N.A. = no activity at 0.8 nmol peptide each well
Experimental: as §1

[18] = system: penicillin-sensitive Staphylococcus epidermidis P1111; details: PSSE P1111, N.A. = no activity at 0.8 nmol peptide each well
Experimental: as §1

[19] = system: methicillin-resistant coagulase-negative Staphylococcus P1369; details: MRCNS P1369, N.A. = no activity at 0.8 nmol peptide each well
Experimental: as §1

[20] = system: Streptococcus salivarius ATCC 1.2498; details: SSAL ATCC 1.2498, N.A. = no activity at 0.8 nmol peptide each well
Experimental: as §1

[21] = system: Bacillus megaterium CGMCC 1.0459; details: BM CGMCC 1.0459, N.A. = no activity at 0.8 nmol peptide each well
Experimental: as §1

[22] = system: Staphylococcus aureus J698; details: SA J698, N.A. = no activity at 0.8 nmol peptide each well
Experimental: as §1

[23] = system: Pseudomonas aeruginosa 11082616; details: PA 11082616, N.A. = no activity at 0.8 nmol peptide each well
Experimental: as §1

Compound	Lethal concentration (CL) [1]	Lethal concentration (CL) [2]	Lethal concentration (CL) [3]	Lethal concentration (CL) [4]	Lethal concentration (CL) [5]	Lethal concentration (CL) [6]	Lethal concentration (CL) [7]	Lethal concentration (CL) [8]	Lethal concentration (CL) (Escherichia coli D. G2b)	Lethal concentration (CL) [9]	Lethal concentration (CL) [10]	Lethal concentration (CL) [13]	Lethal concentration (CL) [14]	Lethal concentration (CL) [15]	Lethal concentration (CL) [16]	Lethal concentration (CL) [17]	Lethal concentration (CL) [18]	Lethal concentration (CL) [19]	Lethal concentration (CL) [20]	Lethal concentration (CL) [22]	further results
CC[C@H](C)[C@H](NC(=O)CN)C(=O)NCC(=O)N[C@@H](C)C(=O)N[C@H](C(=O)N[C@@H](CC(C)C)C(=O)N[C@@H](CCCCN)C(=O)N[C@H](C(=O)N[C@@H](CC(C)C)C(=O)N[C@H](C(=O)N[C@H](C(=O)NCC(=O)N[C@@H](CC(C)C)C(=O)N1CCC[C@H]1C(=O)N[C@@H](C)C(=O)N[C@@H](CC(C)C)C(=O)N[C@H](C(=O)N[C@@H](CO)C(=O)N[C@@H](Cc1c[nH]c2ccccc12)C(=O)N[C@H](C(=O)N[C@@H](CCCCN)C(=O)N[C@@H](CCCNC(=N)N)C(=O)N[C@@H](CCCCN)C(=O)N[C@@H](CCCNC(=N)N)C(=O)N[C@@H](CCC(N)=O)C(=O)N[C@@H](CCC(N)=O)C(N)=O)[C@@H](C)CC)[C@@H](C)CC)[C@@H](C)O)[C@@H](C)O)C(C)C)C(C)C [Melittin, reference compound]	14.4 µM	11.6 µM	9.2 µM	12.08 µM	16.41 µM	1.37 µM	18.20 µM	9.1 µM	18.20 µM	13.70 µM	9.1 µM	18.72 µM	9.37 µM	7.9 µM	18.20 µM	9.3 µM	13.4 µM	9.3 µM	18.20 µM	12.08 µM	Lethal concentration (CL) [11]: 24.54 µM; Lethal concentration (CL) [12]: 7.5 µM; Lethal concentration (CL) [21]: 11.6 µM
FFGHLFKLATKIIPSLFQ [MUC-18, reference compound]		3.35 µM	2.11 µM	6.86 µM	13.72 µM	11.69 µM	22.72 µM	3.35 µM	37.28 µM	8.71 µM	3.72 µM	13.72 µM	9.32 µM	0.87 µM	22.72 µM	1.35 µM	0.87 µM	4.89 µM	9.24 µM	5.16 µM	Lethal concentration (CL) [23]: 31.40 µM; Lethal concentration (CL) [11]: 22.72 µM
FLFSLIPSAISGLINAFK-NH2 [MeuFSPL-2]	12.16 µM	3.61 µM	4.01 µM	8.44 µM	2.70 µM	8.65 µM	37.43 µM	5.13 µM	21.42 µM	5.36 µM	3.52 µM	3.52 µM	5.23 µM	3.14 µM	37.43 µM	5.13 µM	4.77 µM	3.88 µM	5.36 µM	4.11 µM	Lethal concentration (CL) [12]: 1.50 µM; Lethal concentration (CL) [21]: 2.67 µM
FLFSLIPSAISGLISAFK-NH2 [MeuFSPL-1]	12.50 µM	6.16 µM	4.74 µM	10.92 µM	5.20 µM	2.81 µM		7.36 µM	25.00 µM	14.72 µM	2.81 µM	1.13 µM	4.22 µM	5.27 µM	25.00 µM	6.24 µM	7.36 µM	8.48 µM	4.80 µM	4.80 µM	Lethal concentration (CL) [11]: 43.66 µM; Lethal concentration (CL) [12]: 2.26 µM; Lethal concentration (CL) [21]: 2.10 µM
